How the values were obtained:
Assay in all cases: area under dose-response viability curve (log dose) (AUC (arbitrary)); higher = less sensitive
Conditions in all cases: 72 h
Entinostat = compound: Nc1ccccc1NC(=O)c1ccc(CNC(=O)OCc2cccnc2)cc1 [Entinostat]
Experimental: (§1)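 Primary AML blasts from patients (3q26 EVI1-high and other AML) were treated for 72 h with a dose series of each drug. Viability was measured with an ATP-based CellTiter-Glo assay. The area under the curve of the log-transformed dose-response data was computed in GraphPad Prism; a lower AUC means greater sensitivity.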

Daunorubicine = compound: COc1cccc2c1C(=O)c1c(O)c3c(c(O)c1C2=O)C[C@@](O)(C(C)=O)C[C@@H]3O[C@H]1C[C@H](N)[C@H](O)[C@H](C)O1 [Daunorubicine]
Experimental: as §1

Methotrexate = compound: CN(Cc1cnc2nc(N)nc(N)c2n1)c1ccc(C(=O)N[C@@H](CCC(=O)O)C(=O)O)cc1 [Methotrexate]
Experimental: as §1

Vincristine = compound: CC[C@]1(O)C[C@H]2CN(CCc3c([nH]c4ccccc34)[C@@](C(=O)OC)(c3cc4c(cc3OC)N(C=O)[C@H]3[C@@](O)(C(=O)OC)[C@H](OC(C)=O)[C@]5(CC)C=CCN6CC[C@]43[C@@H]65)C2)C1 [Vincristine]
Experimental: as §1

Belinostat = compound: O=C(/C=C/c1cccc(S(=O)(=O)Nc2ccccc2)c1)NO [Belinostat]
Experimental: as §1

AR-42 = compound: CC(C)[C@H](C(=O)Nc1ccc(C(=O)NO)cc1)c1ccccc1 [AR-42]
Experimental: as §1

Test System | area under dose-response viability curve (Entinostat) | area under dose-response viability curve (Daunorubicine) | area under dose-response viability curve (Methotrexate) | area under dose-response viability curve (Vincristine) | area under dose-response viability curve (Belinostat) | area under dose-response viability curve (AR-42)
PR#039 (EVI1 status: EVI1Low) | 125 | 24.5 | 201 | 95.7 | 124 | 96
PR#034 (EVI1 status: EVI1Low) | 195 | 192 | 233 | 202 | 160 | 142
PR#012 (EVI1 status: EVI1Low) | 139 | 120 | 218 | 89.8 | 192 | 131
PR#002 (EVI1 status: EVI1High) | 145 | 110 | 232 | 179 | 179 | 132
PR#033 (EVI1 status: EVI1Low) | 183 | 36.2 | 226 | 147 | 178 | 154
PR#006 (EVI1 status: EVI1High) | 120 | 57.7 | 248 | 136 | 138 | 120
PR#014 (EVI1 status: EVI1Low) | 133 | 63.9 | 248 | 198 | 195 | 128
PR#030 (EVI1 status: EVI1Low) | 237 | 88.5 | 233 | 147 | 180 | 158
PR#036 (EVI1 status: EVI1Low) | 172 | 48.2 | 251 | 123 | 150 | 130
PR#021 (EVI1 status: EVI1Low) | 215 | 122 | 241 | 195 | 202 | 189
PR#011 (EVI1 status: EVI1Low) | 200 | 132 | 226 | 196 | 209 | 188
PR#032 (EVI1 status: EVI1Low) | 144 | 58 | 258 | 92.1 | 148 | 170
PR#018 (EVI1 status: EVI1Low) | 211 | 101 | 236 | 204 | 189 | 184
PR#025 (EVI1 status: EVI1Low) | 256 | 77.4 | 247 | 214 | 197 | 178
PR#029 (EVI1 status: EVI1Low) | 213 | 25.4 | 229 | 46.3 | 221 | 167
PR#023 (EVI1 status: EVI1High) | 162 | 138 | 240 | 140 | 165 | 139

Test System | area under dose-response viability curve (Entinostat) | area under dose-response viability curve (Daunorubicine) | area under dose-response viability curve (Methotrexate) | area under dose-response viability curve (Vincristine) | area under dose-response viability curve (Belinostat) | area under dose-response viability curve (AR-42)
PR#019 (EVI1 status: EVI1Low) | 232 | 128 | 245 | 203 | 225 | 208
PR#020 (EVI1 status: EVI1Low) | 182 | 61.9 | 248 | 128 | 246 | 130
PR#022 (EVI1 status: EVI1Low) | 185 | 59.5 | 244 | 175 | 161 | 140
PR#024 (EVI1 status: EVI1High) | 167 | 66.1 | 249 | 97 | 122 | 106
PR#010 (EVI1 status: EVI1Low) | 147 | 93.9 | 256 | 172 | 177 | 121
PR#035 (EVI1 status: EVI1Low) | 175 | 64.4 | 198 | 119 | 168 | 145
PR#007 (EVI1 status: EVI1High) | 172 | 110 | 245 | 186 | 157 | 163
PR#038 (EVI1 status: EVI1Low) | 143 | 86 | 209 | 187 | 167 | 141
PR#028 (EVI1 status: EVI1Low) | 198 | 142 | 252 | 116 | 182 | 164
PR#026 (EVI1 status: EVI1Low) | 205 | 85.1 | 241 | 90.2 | 189 | 155
PR#017 (EVI1 status: EVI1Low) | 191 | 89.5 | 237 | 204 | 160 | 163
PR#013 (EVI1 status: EVI1Low) | 153 | 68.1 | 233 | 193 | 169 | 130
PR#005 (EVI1 status: EVI1High) | 107 | 87.5 | 198 | 156 | 138 | 156
PR#031 (EVI1 status: EVI1Low) | 229 | 34.9 | 233 | 129 | 204 | 189
PR#003 (EVI1 status: EVI1High) | 142 | 68 | 239 | 162 | 156 | 112
PR#015 (EVI1 status: EVI1Low) | 145 | 37 | 248 | 128 | 227 | 149

Source: the supplement of paper PMC11150407
